Data on eleven compounds can be found in ChEMBL document CHEMBL1201862, “PubChem BioAssay data set” (2004).

The structures appear in SMILES notation.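 Each compound was tested at five concentrations against cells in 96-well plates for 48 hours. At the GI50, growth is halved.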 The source made the active and inactive calls. No stated cut-off is given here; in the data, active = GI50 up to about 1.1 µM and inactive = higher.

Holding throughout (assay): inhibition of tumour cell growth, NCI panel, 48 h
Test [1] has as its system NCI-H23.
Test [2] relates to K562.
Test [3] relates to SF-295.
The test system of test [4] is UO-31.
Test [5] deals with T47D.
The test system of test [6] is BT-549.
Test [7] concerns MDA-MB-435.
For test [8], the system named is OVCAR-8.
The test system of test [9] is HCT-116.
Test [10] deals with HCT-15.
Test [11] relates to HOP-62.
Test [12] concerns CCRF-CEM.
The test system of test [13] is HL-60.
Test [14] concerns NCI/ADR-RES.
Test [15] has as its system SF-539.
The test system of test [16] is SK-MEL-28.
Test [17] deals with SN12C.
Test [18] concerns ACHN.

In the case of `CC(C)(C)c1cc(S(=O)(=O)O)c2oc(-c3ccccc3)cc(=O)c2c1`, the GI50 in test [1] is > 100 µM (inactive); in [2], > 100 µM (inactive); in test [3], > 100 µM (inactive); in test [4], > 100 µM (inactive); in test [5], 84.9 µM (inactive); in test [6] it was > 100 µM (inactive). Moreover, the GI50 in test [7] was > 100 µM (inactive); in test [8] it was > 100 µM (inactive); in test [9] it was > 100 µM (inactive); in test [10] it was more than 100 µM; in [11], > 100 µM (inactive); in [12], > 100 µM (inactive). The GI50 in [13], in [14], in [15], in test [16], in test [17] and in test [18] was > 100 µM (inactive) each time.
Regarding `O=C(CN1CCCCC1)Nc1ccc2sc3ccccc3c(=O)c2n1`, the GI50 is 16.9 µM (inactive) in test [1]; 5.36 µM (inactive) in test [2]; 15 µM (inactive) in [3]; 9.95 µM (inactive) in test [4]; 27.2 µM (inactive) in test [5]; 19.3 µM (inactive) in test [6]. In addition, the GI50 in test [7] was 13.1 µM (inactive); in [8], 13.7 µM (inactive); in test [9], 9.23 µM (inactive); in test [10], 12.2 µM; in test [11] it was 13.8 µM (inactive); in test [12], 5.92 µM (inactive). The GI50 in test [13] was 17.1 µM (inactive); in [14], 7.82 µM (inactive); in [15], 16.4 µM (inactive); in test [16] it was 17.3 µM (inactive); in [17], 12.5 µM (inactive); in [18], 14.2 µM (inactive).
Consider `Brc1ccc2c(-c3csc(-c4c[nH]c5cc(Br)ccc45)n3)c[nH]c2c1`, for which the GI50 in [1] was 18.5 µM (inactive); in test [2], 4.75 µM (inactive); in test [3], 9.31 µM (inactive); in [4], 55.3 µM (inactive); in test [5], 20.2 µM (inactive); in [6] it was > 64.1 µM (inactive). Besides, the GI50 in test [7] is 5.27 µM (inactive); in [8], 21 µM (inactive); in [9], 14.5 µM (inactive); in test [10], 12.4 µM; in [11], 37.2 µM (inactive); in test [12], 10.2 µM (inactive). In addition, the GI50 was 5.69 µM (inactive) in test [13]; 16 µM (inactive) in [14]; 19.6 µM (inactive) in test [15]; 46.6 µM (inactive) in test [16]; 37 µM (inactive) in [17]; 44 µM (inactive) in [18].
Consider `CCOC(=O)n1c2ccccc2c2c(O)c(OC)c3c(c21)C(=O)NC3=O`, for which the GI50 in test [1] is 52.5 µM (inactive); in test [2], 40.9 µM (inactive); in test [3] it was 75.3 µM (inactive); in [4] it was 33.1 µM (inactive); in [5] it was 95.1 µM (inactive); in test [6], > 100 µM (inactive). Also, the GI50 is 60 µM (inactive) in [7]; 31.8 µM (inactive) in test [8]; 20.1 µM (inactive) in test [9]; 17.3 µM in test [10]; 23 µM (inactive) in [11]; 13.1 µM (inactive) in [12]. Further, the GI50 was 20.7 µM (inactive) in test [13]; 28.6 µM (inactive) in test [14]; 57.5 µM (inactive) in test [15]; > 100 µM (inactive) in [16]; 83.6 µM (inactive) in [17]; 19.8 µM (inactive) in test [18].
With `CCOc1cc2c(cc1O)/C(=N\N)C[C@@H]1[C@@H]2CC[C@]2(C)[C@@H](O)CC[C@@H]12`, the GI50 in [1] was 7.01 µM (inactive); in test [2], 0.42 µM (active); in test [3], 0.397 µM (active); in [4] it was 3.96 µM (inactive); in test [5], 8.32 µM (inactive); in test [6], 4.26 µM (inactive). Also, the GI50 in test [7] was 0.281 µM (active); in test [8] it was 7.1 µM (inactive); in test [9], 2.34 µM (inactive); in test [10], 1.31 µM; in [11], 3.66 µM (inactive); in test [12], 2.38 µM (inactive). Also, the GI50 in test [13] was 0.337 µM (active); in test [14], 3.86 µM (inactive); in test [15], 3.13 µM (inactive); in test [16] it was 5.66 µM (inactive); in test [17], 9.12 µM (inactive); in test [18], 5.61 µM (inactive).
For `CSC(=S)N/N=C(\C)c1cccc(C)n1`, the GI50 is 0.975 µM (active) in test [1]; 0.042 µM (active) in test [2]; 1.49 µM (inactive) in test [3]; 1.21 µM (inactive) in test [4]; 2.46 µM (inactive) in test [5]; 5.19 µM (inactive) in test [6]. Besides, the GI50 in [7] is 1.35 µM (inactive); in test [8], 0.769 µM (active); in test [9], 0.183 µM (active); in test [10] it was 0.375 µM; in test [11] it was 0.953 µM (active); in test [12], 0.0124 µM (active). The GI50 is 0.0764 µM (active) in [13]; 1.36 µM (inactive) in test [14]; 1.17 µM (inactive) in [15]; 1.46 µM (inactive) in [16]; 1.28 µM (inactive) in test [17]; 0.265 µM (active) in [18].
`Nc1ccc(S(=O)(=O)Nc2nc3ccccc3nc2N2CCCCCC2)cc1`: the GI50 is 9.06 µM (inactive) in [1]; 17.6 µM (inactive) in [2]; 22.9 µM (inactive) in test [3]; 13.2 µM (inactive) in test [4]; 22.9 µM (inactive) in test [5]; 7.23 µM (inactive) in [6]. Also, the GI50 was 18.1 µM (inactive) in test [7]; 31.9 µM (inactive) in test [8]; 16.6 µM (inactive) in [9]; 23.9 µM in test [10]; 20 µM (inactive) in [11]; 33.5 µM (inactive) in test [12]. Besides, the GI50 was 19.1 µM (inactive) in [13]; 30.8 µM (inactive) in [14]; 18.5 µM (inactive) in test [15]; 18.5 µM (inactive) in [16]; 11 µM (inactive) in test [17]; 35.9 µM (inactive) in test [18].
On to `COc1cc2nc(-c3cccs3)[nH]c(=O)c2cc1OC`, for which the GI50 in test [1] is > 100 µM (inactive); in test [2], > 100 µM (inactive); in test [3], 86.7 µM (inactive); in test [4] it was > 100 µM (inactive); in test [5], > 100 µM (inactive); in test [6] it was > 100 µM (inactive). Besides, the GI50 in [7] was > 100 µM (inactive); in test [8], > 100 µM (inactive); in [9], 70.6 µM (inactive); in [10], more than 100 µM; in [11], > 100 µM (inactive); in test [12] it was 36.6 µM (inactive). For the same compound, the GI50 in test [13] was 35.4 µM (inactive); in test [14], > 100 µM (inactive); in test [15], 38.7 µM (inactive); in test [16], > 100 µM (inactive); in test [17], > 100 µM (inactive); in [18], > 100 µM (inactive).
Take `COc1cc2cc(C(=O)N3CC(CCl)c4c3cc(NC(=O)OCc3ccc([N+](=O)[O-])cc3)c3ccccc43)[nH]c2c(OC)c1OC` (configuration not stated): the GI50 in [1] was 0.158 µM (active); in [3], 17.2 µM (inactive); in test [4], 0.125 µM (active); in test [5], 24.3 µM (inactive); in test [6] it was 97.3 µM (inactive); in [7], > 100 µM (inactive). The GI50 is 1.1 µM (active) in test [8]; 14.7 µM (inactive) in test [9]; more than 50.2 µM in [10]; 16.3 µM (inactive) in test [11]; 8.91 µM (inactive) in test [12]; 0.11 µM (active) in [13]. The GI50 in [14] is 3.67 µM (inactive); in test [15] it was > 48.6 µM (inactive); in test [16] it was > 100 µM (inactive); in test [17] it was > 100 µM (inactive); in test [18], < 0.0116 µM (active).
On to `C1=Cc2cccc3occ(c23)C=C1`, for which the GI50 in test [1] is 84.5 µM (inactive); in test [2], 16.3 µM (inactive); in [3] it was > 100 µM (inactive); in [4], 41.8 µM (inactive); in test [5], 68.7 µM (inactive); in test [6], 39.9 µM (inactive). Further, the GI50 was 82 µM (inactive) in test [7]; 46.8 µM (inactive) in test [8]; 46.3 µM (inactive) in test [9]; 48 µM in test [10]; > 100 µM (inactive) in test [11]; 20.5 µM (inactive) in test [12]. For the same compound, the GI50 in test [13] was 20.4 µM (inactive); in [14] it was > 100 µM (inactive); in test [15], 37.4 µM (inactive); in test [16], 47.2 µM (inactive); in test [17], > 100 µM (inactive); in test [18], 58.1 µM (inactive).
In the case of `O=C(CCC1OCCO1)Nc1cc(NCc2ccccc2)ccc1OCc1ccccc1`, the GI50 is 31.7 µM (inactive) in test [1]; 28.9 µM (inactive) in test [2]; 30.2 µM (inactive) in test [3]; 33.9 µM (inactive) in test [4]; 69.5 µM (inactive) in test [5]; 38.5 µM (inactive) in test [6]. Besides, the GI50 in test [7] was 23.6 µM (inactive); in test [8], 18.9 µM (inactive); in test [9], 48.9 µM (inactive); in test [10], 35.1 µM; in [11] it was > 100 µM (inactive); in [12], 17 µM (inactive). The GI50 was 38.5 µM (inactive) in [13]; 43.1 µM (inactive) in test [14]; 30.4 µM (inactive) in test [15]; 64.7 µM (inactive) in test [16]; 46.8 µM (inactive) in [17]; 33.5 µM (inactive) in [18].
